Data as given in patent publication US6914045B2, “Glycopeptide antibiotics” (Wyeth Holdings Corporation, priority 2001, dated 2005).
≈ marks a conversion by molar mass, not a printed value. Read-outs that look alike come from different tables or passages of the source.

What was measured:
[1] = test system: Gram-positive bacteria comprised of Staphylococcus sp., Streptococcus sp. and Enterococcus sp.; assay: in vitro antibacterial evaluation, MIC by broth dilution (strain not given); type: cell-based
Protocol: Methods for in vitro Antibacterial Evaluation (Table 1)
The minimum inhibitory concentration (MIC), the lowest concentration of the antibiotic which inhibits growth of the test organism, is determined by the broth dilution method using Muller-Hinton II […] (Baltimore Biological Laboratories) following the recommendations of the National Committee for Clinical Laboratory Standards [Methods for dilution antimicrobial susceptibility tests for bacteria that grow aerobically, approved standard M7-A2, National Committee for Clinical Laboratory Standards, Villanova, Pa.].
An inoculum level of 5×10^5 CFU/mL, and a range of antibiotic concentrations (64-0.06 μg/mL) is used. […] The test organisms include a spectrum of Gram-positive bacteria comprised of Staphylococcus sp., Streptococcus sp. and Enterococcus sp. These organisms include recent clinical isolates that are resistant to methicillin, penicillin and/or vancomycin.

[2] = test system: Staphylococcus aureus-SMITH (GC 4543); assay: acute lethal infection in mice; type: in vivo; settings: Staphylococcus, read-out: median effective dose (ED50), Staphylococcus aureus-SMITH (GC 4543)
Summary of the method: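 Mice (female CD-1, 20+/−2 gm) receive bacteria ip in broth or hog gastric mucin, then test agent iv after 30 min. Median effective dose is calculated from 7 day survival pooled across 3 tests.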

Staphylococcus sp. = assay: in vitro antibacterial evaluation, MIC by broth dilution; type: cell-based; settings: broth dilution, 18 hours at 35° C.
Summary of the method: (§1)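 MIC, the lowest antibiotic concentration preventing growth, was read across 64-0.06 μg/mL with 5×10^5 CFU/mL inoculum. Method followed NCCLS M7-A2 broth dilution using Mueller-Hinton II; Gram-positive strains covered recent methicillin-, penicillin- and/or vancomycin-resistant clinical isolates.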

Escherichia coli = assay: as above; type: cell-based; settings: 18 hours at 35° C.
Summary of the method: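 Read-out: the lowest concentration at which the test strain fails to grow. Serial dilutions (64-0.06 μg/mL) in Muller-Hinton II […], 5×10^5 CFU/mL inoculum, NCCLS M7-A2 procedure.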

Streptococcus sp. = assay: as above; type: cell-based; settings: broth dilution, 18 hours at 35° C.
Summary of the method: as §1

Enterococcus sp. = assay: as above; type: cell-based; settings: broth dilution, 18 hours at 35° C.
Summary of the method: as §1

[3] = anatomic pathology (histopathology of heart and kidney) in mice; type: in vivo; settings: CD-1 mice, 20 mg/kg intravenously daily for 9 days, necropsy day 10, microscopic histopathology
Protocol: Samples of tissues from necropsied mice were formalin-fixed, paraffin-embedded, sectioned, stained with hematoxylin and eosin, and examined microscopically. Histopathologic findings were recorded. These findings were subjectively graded on a scale corresponding to slight, mild, moderate, marked and severe as compared to untreated controls.

## N=C1NCC(C(O)C2NC(=O)[C@H](C(O)C3CNC(=N)N3)NC(=O)C(Cc3ccc(O)cc3)NC(=O)[C@H](Cc3ccccc3)NC(=O)CNC(=O)[C@H](CO)NC2=O)N1 (stereo in doubt) [Example 280a, Cyclo[glycylphenylalanyltyrosyl-3-(2-iminoimidazolidin-4-yl)seryl-3-(2-iminoimidazolidin-4-yl)serylseryl]]
[1]; Table 2 section r2574-r2600, column 1, 18 hours at 35° C., read-out: MIC, strain of column 1
  MIC: > 128 µg/mL
[1]; Table 2 section r2574-r2600, column 2, 18 hours at 35° C., read-out: MIC, strain of column 2
  MIC: 128 µg/mL (≈ 161 µM)
[1]; Table 2 section r2574-r2600, column 3, 18 hours at 35° C., read-out: MIC, strain not given
  MIC: > 128 µg/mL
[1]; Table 2 section r2574-r2600, column 5, 18 hours at 35° C., read-out: MIC, strain of column 5
  MIC: > 128 µg/mL
[1]; Table 2 section r2574-r2600, column 7, 18 hours at 35° C., read-out: MIC, strain not given
  MIC: > 128 µg/mL
[1]; Table 2 section r2574-r2600, column 9, 18 hours at 35° C., read-out: MIC, strain of column 9
  MIC: > 128 µg/mL
[1]; Table 2 section r2574-r2600, column 10, 18 hours at 35° C., read-out: MIC, strain of column 10
  MIC: > 128 µg/mL
[2]
  ED50: > 8 mg/kg
Staphylococcus sp.; Staphylococcus, read-out: MIC Coagulase Negative Staphylococcus (GC 4547)
  MIC: 128 µg/mL (≈ 161 µM)
Staphylococcus sp.; Staphylococcus, read-out: MIC Coagulase Negative Staphylococcus (GC 4548)
  MIC: > 128 µg/mL
Staphylococcus sp.; Staphylococcus, read-out: MIC Coagulase Negative Staphylococcus (GC 4549)
  MIC: 128 µg/mL (≈ 161 µM)
Staphylococcus sp.; Staphylococcus, read-out: MIC Coagulase Negative Staphylococcus (GC 4551)
  MIC: > 128 µg/mL
Staphylococcus sp.; Staphylococcus, read-out: MIC Coagulase Negative Staphylococcus (GC 6257)
  MIC: 128 µg/mL (≈ 161 µM)
Staphylococcus sp.; Staphylococcus, read-out: MIC Staphylococcus aureus-SMITH (GC 4543)
  MIC: > 128 µg/mL
Staphylococcus sp.; read-out: MIC Staphylococcus aureus (ATCC 29213)
  MIC: > 128 µg/mL
Staphylococcus sp.; read-out: MIC Staphylococcus aureus (GC 1131)
  MIC: > 128 µg/mL
Staphylococcus sp.; read-out: MIC Staphylococcus aureus (GC 3051)
  MIC: > 128 µg/mL
Staphylococcus sp.; read-out: MIC Staphylococcus aureus (GC 3053)
  MIC: > 128 µg/mL
Staphylococcus sp.; read-out: MIC Staphylococcus aureus (GC 4541)
  MIC: > 128 µg/mL
Staphylococcus sp.; read-out: MIC Staphylococcus aureus (GC 4542)
  MIC: > 128 µg/mL
Staphylococcus sp.; read-out: MIC Staphylococcus aureus (GC 4544)
  MIC: > 128 µg/mL
Staphylococcus sp.; read-out: MIC Staphylococcus aureus (GC 4545)
  MIC: > 128 µg/mL
Staphylococcus sp.; read-out: MIC Staphylococcus haemolyticus (GC 4546)
  MIC: 128 µg/mL (≈ 161 µM)
Staphylococcus sp.; strain ATCC 29213
  MIC Staphylococcus aureus (ATCC 29213): >128 µg/mL
Staphylococcus sp.; strain GC 1131
  MIC Staphylococcus aureus (GC 1131): >128 µg/mL
Staphylococcus sp.; strain GC 3051
  MIC Staphylococcus aureus (GC 3051): >128 µg/mL
Staphylococcus sp.; strain GC 3053
  MIC Staphylococcus aureus (GC 3053): >128 µg/mL
Staphylococcus sp.; strain GC 4541
  MIC Staphylococcus aureus (GC 4541): >128 µg/mL
Staphylococcus sp.; strain GC 4542
  MIC Staphylococcus aureus (GC 4542): >128 µg/mL
Staphylococcus sp.; strain GC 4544
  MIC Staphylococcus aureus (GC 4544): >128 µg/mL
Staphylococcus sp.; strain GC 4545
  MIC Staphylococcus aureus (GC 4545): >128 µg/mL
Staphylococcus sp.; strain GC 4546
  MIC Staphylococcus haemolyticus (GC 4546): 128 µg/mL (≈ 161 µM)
Staphylococcus sp.; strain GC 4547
  MIC Coagulase Negative Staphylococcus (GC 4547): 128 µg/mL (≈ 161 µM)
Staphylococcus sp.; strain GC 4548
  MIC Coagulase Negative Staphylococcus (GC 4548): >128 µg/mL
Staphylococcus sp.; strain GC 4549
  MIC Coagulase Negative Staphylococcus (GC 4549): 128 µg/mL (≈ 161 µM)
Staphylococcus sp.; strain GC 4551
  MIC Coagulase Negative Staphylococcus (GC 4551): >128 µg/mL
Staphylococcus sp.; strain GC 6257
  MIC Coagulase Negative Staphylococcus (GC 6257): 128 µg/mL (≈ 161 µM)
Staphylococcus sp.; strain SMITH GC 4543
  MIC Staphylococcus aureus-SMITH (GC 4543): >128 µg/mL
Escherichia coli; ATCC25922, Escherichia coli (ATCC 25922), read-out: MIC, Escherichia coli (ATCC 25922)
  MIC: 128 µg/mL (≈ 161 µM)
Escherichia coli; Escherichia coli (GC 4559), read-out: MIC, Escherichia coli (GC 4559)
  MIC: 64 µg/mL (≈ 80.5 µM)
Escherichia coli; Escherichia coli (GC 4560), read-out: MIC, Escherichia coli (GC 4560)
  MIC: 64 µg/mL (≈ 80.5 µM)
Streptococcus sp.; strain ATCC 6301, read-out: MIC Streptococcus pneumoniae (ATCC 6301)
  MIC: > 128 µg/mL
Streptococcus sp.; strain GC 1894, read-out: MIC Streptococcus pneumoniae (GC 1894)
  MIC: 128 µg/mL (≈ 161 µM)
Streptococcus sp.; strain GC 4563, read-out: MIC Streptococcus pyogenes (GC 4563)
  MIC: > 128 µg/mL
Streptococcus sp.; strain GC 4564, read-out: MIC Streptococcus agalactiae (GC 4564)
  MIC: > 128 µg/mL
Streptococcus sp.; strain GC 4565, read-out: MIC Streptococcus pneumoniae (GC 4565)
  MIC: > 128 µg/mL
Enterococcus sp.; Enterococcus avium (GC 4558), read-out: MIC, Enterococcus avium (GC 4558)
  MIC: > 128 µg/mL
Enterococcus sp.; Enterococcus faecalis (ATCC 29212), read-out: MIC, Enterococcus faecalis (ATCC 29212)
  MIC: > 128 µg/mL
Enterococcus sp.; Enterococcus faecalis (GC 4553), read-out: MIC, Enterococcus faecalis (GC 4553)
  MIC: > 128 µg/mL
Enterococcus sp.; Enterococcus faecalis (GC 4554), read-out: MIC, Enterococcus faecalis (GC 4554)
  MIC: > 128 µg/mL
Enterococcus sp.; Enterococcus faecalis (GC 6189), read-out: MIC, Enterococcus faecalis (GC 6189)
  MIC: > 128 µg/mL
Enterococcus sp.; Enterococcus faecium (GC 2243), read-out: MIC, Enterococcus faecium (GC 2243)
  MIC: > 128 µg/mL
Enterococcus sp.; Enterococcus faecium (GC 4556), read-out: MIC, Enterococcus faecium (GC 4556)
  MIC: > 128 µg/mL
Enterococcus sp.; Enterococcus faecium (GC 4557), read-out: MIC, Enterococcus faecium (GC 4557)
  MIC: > 128 µg/mL
Enterococcus sp.; strain ATCC 29212, read-out: MIC Enterococcus faecalis (ATCC 29212)
  MIC: > 128 µg/mL
Enterococcus sp.; strain GC 2242, read-out: MIC Enterococcus faecalis (GC 2242)
  MIC: > 128 µg/mL
Enterococcus sp.; strain GC 2243, read-out: MIC Enterococcus faecium (GC 2243)
  MIC: > 128 µg/mL
Enterococcus sp.; strain GC 2691, read-out: MIC Enterococcus faecalis (GC 2691)
  MIC: > 128 µg/mL
Enterococcus sp.; strain GC 3059, read-out: MIC Enterococcus faecalis (GC 3059)
  MIC: > 128 µg/mL
Enterococcus sp.; strain GC 4552, read-out: MIC Enterococcus faecalis (GC 4552)
  MIC: > 128 µg/mL
Enterococcus sp.; strain GC 4553, read-out: MIC Enterococcus faecalis (GC 4553)
  MIC: > 128 µg/mL
Enterococcus sp.; strain GC 4554, read-out: MIC Enterococcus faecalis (GC 4554)
  MIC: > 128 µg/mL
Enterococcus sp.; strain GC 4556, read-out: MIC Enterococcus faecium (GC 4556)
  MIC: > 128 µg/mL
Enterococcus sp.; strain GC 4557, read-out: MIC Enterococcus faecium (GC 4557)
  MIC: > 128 µg/mL
Enterococcus sp.; strain GC 4558, read-out: MIC Enterococcus avium (GC 4558)
  MIC: > 128 µg/mL
Enterococcus sp.; strain GC 6189, read-out: MIC Enterococcus faecalis (GC 6189)
  MIC: > 128 µg/mL
[3]
  Anatomical Pathology (Day 10), Heart: 0
  Anatomical Pathology (Day 10), Kidney: ++
